Measured values from patent US10383880B2 (Reset Therapeutics, Inc., priority 2012, dated 2019).

What follows are compounds tested on Per2-dLuc U2OS reporter cells (assay: Per2 assay for evaluating the potency of test compounds (high-throughput circadian assay)). Settings: Homo sapiens, U2OS, stable U2OS reporter cells harboring Per2-dLuc; luminescence monitored over 4-5 days at 35° C.
Assay type: cell-based
Method: Compounds were screened by using a high-throughput circadian assay system as previously described in Zhang, E. E. et al. Cell, 2009, 139, 199-210. In brief, stable U2OS reporter cells harboring Per2-dLuc were plated at a density of 8,000 cells/well in Corning 96-well, solid white, flat bottom, TC-treated microplates (Corning®), and incubated for 24 hours at 37° C. in the presence of 5% CO2. The cells were then synchronized by serum shock by media exchange to a minimal explant media (10 mM HEPES (pH 7.0), 2% B27, 1×PSG (Invitrogen®), and 1.0 mM beetle luciferin (Promega®)) followed by the addition of the compounds of formula I dissolved in dimethylsulfoxide (0.5% final dimethylsulfoxide concentration). Gene expression was monitored by measuring luminescence (TecanR M200) over 4-5 days at 35° C. The period, amplitude, and phase of the associated circadian rhythms were determined using Multicycle™ software (Actimetrics, Inc). EC50 values of the compounds of formula I were calculated using Graphpad™ (Prism®).
`CS(=O)(=O)N(CC(O)Cn1c2ccccc2c2ccccc21)C1CCc2ccccc21` (single isomer, unassigned) [Compound 61, N-(3-(9H-Carbazol-9-yl)-2-hydroxypropyl)-N-(2,3-dihydro-1H-inden-1-yl)methanesulfonamide] gave an EC50 of 4470 nM.
For `CS(=O)(=O)N(CC(O)Cn1c2ccccc2c2ccccc21)CC1CC2CCC1O2` (single isomer, unassigned) [Compound 69, N-(7-Oxabicyclo[2.2.1]heptan-2-ylmethyl)-N-(3-(9H-carbazol-9-yl)-2-hydroxypropyl)methanesulfonamide], the EC50 was 759 nM.
`CC1CCCCC1N(CC(O)Cn1c2ccccc2c2ccccc21)S(C)(=O)=O` (single isomer, unassigned) [Compound 127, N-(3-(9H-Carbazol-9-yl)-2-hydroxypropyl)-N-(2-methylcyclohexyl)methanesulfonamide] gave an EC50 of 4010 nM.
`CS(=O)(=O)N(CC(O)Cn1c2ccccc2c2ccccc21)C1CC2CCC1O2` (single isomer, unassigned) [Compound 140A, N-(3-(9H-Carbazol-9-yl)-2-hydroxypropyl)-N-(7-oxabicyclo[2.2.1]heptan-2-yl)methanesulfonamide] gave an EC50 of 503 nM.
Work on `CS(=O)(=O)N(Cc1ccco1)CC(O)Cn1c2ccccc2c2ccccc21` (stereo not drawn) [Compound 1, N-(3-(9H-Carbazol-9-yl)-2-hydroxypropyl)-N-(furan-2-ylmethyl)methanesulfonamide] yielded an EC50 of 340 nM.
For `CCS(=O)(=O)N(Cc1ccco1)CC(O)Cn1c2ccccc2c2ccccc21` (stereo not drawn) [Compound 2, N-(3-(9H-Carbazol-9-yl)-2-hydroxypropyl)-N-(furan-2-ylmethyl)ethanesulfonamide], the EC50 was 742 nM.
For `CCCS(=O)(=O)N(Cc1ccco1)CC(O)Cn1c2ccccc2c2ccccc21` (stereo not drawn) [Compound 3, N-(3-(9H-Carbazol-9-yl)-2-hydroxypropyl)-N-(furan-2-ylmethyl)propane-1-sulfonamide], the EC50 was 650 nM.
With `O=S(=O)(c1ccccc1)N(Cc1ccco1)CC(O)Cn1c2ccccc2c2ccccc21` (stereo not drawn) [Compound 4, N-(3-(9H-Carbazol-9-yl)-2-hydroxypropyl)-N-(furan-2-ylmethyl)benzenesulfonamide] the EC50 was 2500 nM.
`O=S(=O)(c1cn[nH]c1)N(Cc1ccco1)CC(O)Cn1c2ccccc2c2ccccc21` (stereo not drawn) [Compound 5, N-(3-(9H-Carbazol-9-yl)-2-hydroxypropyl)-N-(furan-2-ylmethyl)-1H-pyrazole-4-sulfonamide] gave an EC50 of 8190 nM.
`O=S(=O)(CCC(F)(F)F)N(Cc1ccco1)CC(O)Cn1c2ccccc2c2ccccc21` (stereo not drawn) [Compound 6, N-(3-(9H-Carbazol-9-yl)-2-hydroxypropyl)-3,3,3-trifluoro-N-(furan-2-ylmethyl)propane-1-sulfonamide] gave an EC50 of 964 nM.
With `O=S(=O)(CC(F)(F)F)N(Cc1ccco1)CC(O)Cn1c2ccccc2c2ccccc21` (stereo not drawn) [Compound 7, N-(3-(9H-Carbazol-9-yl)-2-hydroxypropyl)-2,2,2-trifluoro-N-(furan-2-ylmethyl)ethanesulfonamide] the EC50 was 2100 nM.
With `O=S(=O)(CC(F)F)N(Cc1ccco1)CC(O)Cn1c2ccccc2c2ccccc21` (stereo not drawn) [Compound 8, N-(3-(9H-Carbazol-9-yl)-2-hydroxypropyl)-2,2-difluoro-N-(furan-2-ylmethyl)ethanesulfonamide] the EC50 was 6960 nM.
`COCCCS(=O)(=O)N(Cc1ccco1)CC(O)Cn1c2ccccc2c2ccccc21` (stereo not drawn) [Compound 9, N-(3-(9H-Carbazol-9-yl)-2-hydroxypropyl)-N-(furan-2-ylmethyl)-3-methoxypropane-1-sulfonamide] gave an EC50 of 2860 nM.
Work on `O=S(=O)(CCCF)N(Cc1ccco1)CC(O)Cn1c2ccccc2c2ccccc21` (stereo not drawn) [Compound 10, N-(3-(9H-Carbazol-9-yl)-2-hydroxypropyl)-3-fluoro-N-(furan-2-ylmethyl)propane-1-sulfonamide] yielded an EC50 of 1130 nM.
Work on `COCCS(=O)(=O)N(Cc1ccco1)CC(O)Cn1c2ccccc2c2ccccc21` (stereo not drawn) [Compound 11, N-(3-(9H-Carbazol-9-yl)-2-hydroxypropyl)-N-(furan-2-ylmethyl)-2-methoxyethanesulfonamide] yielded an EC50 of 1790 nM.
For `CCOCCS(=O)(=O)N(Cc1ccco1)CC(O)Cn1c2ccccc2c2ccccc21` (stereo not drawn) [Compound 12, N-(3-(9H-Carbazol-9-yl)-2-hydroxypropyl)-2-ethoxy-N-(furan-2-ylmethyl)ethanesulfonamide], the EC50 was 1010 nM.
`CC(C)CS(=O)(=O)N(Cc1ccco1)CC(O)Cn1c2ccccc2c2ccccc21` (stereo not drawn) [Compound 13, N-(3-(9H-Carbazol-9-yl)-2-hydroxypropyl)-N-(furan-2-ylmethyl)-2-methylpropane-1-sulfonamide] was tested, and the EC50 was 454 nM.
`O=S(=O)(Cc1ccccc1)N(Cc1ccco1)CC(O)Cn1c2ccccc2c2ccccc21` (stereo not drawn) [Compound 14, N-(3-(9H-Carbazol-9-yl)-2-hydroxypropyl)-N-(furan-2-ylmethyl)-1-phenylmethanesulfonamide] showed an EC50 of 652 nM.
For `O=S(=O)(CC1CC1)N(Cc1ccco1)CC(O)Cn1c2ccccc2c2ccccc21` (stereo not drawn) [Compound 15, N-(3-(9H-Carbazol-9-yl)-2-hydroxypropyl)-1-cyclopropyl-N-(furan-2-ylmethyl)methanesulfonamide], the EC50 was 592 nM.
Work on `O=S(=O)(C1CC1)N(Cc1ccco1)CC(O)Cn1c2ccccc2c2ccccc21` (stereo not drawn) [Compound 16, N-(3-(9H-Carbazol-9-yl)-2-hydroxypropyl)-N-(furan-2-ylmethyl)cyclopropanesulfonamide] yielded an EC50 of 1670 nM.
`O=S(=O)(CC1CCOC1)N(Cc1ccco1)CC(O)Cn1c2ccccc2c2ccccc21` (stereo not drawn) [Compound 17, N-(3-(9H-Carbazol-9-yl)-2-hydroxypropyl)-N-(furan-2-ylmethyl)-1-(tetrahydrofuran-3-yl)methanesulfonamide] gave an EC50 of 2490 nM.
`O=S(=O)(CC1CCCCO1)N(Cc1ccco1)CC(O)Cn1c2ccccc2c2ccccc21` (stereo not drawn) [Compound 18, N-(3-(9H-Carbazol-9-yl)-2-hydroxypropyl)-N-(furan-2-ylmethyl)-1-(tetrahydro-2H-pyran-2-yl)methanesulfonamide] gave an EC50 of 3760 nM.
Work on `O=S(=O)(CC1CCCO1)N(Cc1ccco1)CC(O)Cn1c2ccccc2c2ccccc21` (stereo not drawn) [Compound 19, N-(3-(9H-Carbazol-9-yl)-2-hydroxypropyl)-N-(furan-2-ylmethyl)-1-(tetrahydrofuran-2-yl)methanesulfonamide] yielded an EC50 of 2100 nM.
For `O=S1(=O)CCCN1CC(O)Cn1c2ccccc2c2ccccc21` (stereo not drawn) [Compound 20, N-(3-(9H-Carbazol-9-yl)-2-hydroxypropyl)isothiazolidine 1,1-dioxide], the EC50 was 29 nM.
In the case of `COc1ccc(N(CC(O)Cn2c3ccccc3c3ccccc32)S(C)(=O)=O)cc1` (stereo not drawn) [Compound 21, N-(3-(9H-Carbazol-9-yl)-2-hydroxypropyl)-N-(4-methoxyphenyl)methanesulfonamide], the EC50 is reported as 440 nM.
Compound `CS(=O)(=O)N(CC(O)Cn1c2ccccc2c2ccccc21)c1ccc(Cl)cc1` (stereo not drawn) [Compound 22, N-(3-(9H-Carbazol-9-yl)-2-hydroxypropyl)-N-(4-chlorophenyl)methanesulfonamide] has an EC50 of 510 nM.
In the case of `CS(=O)(=O)N(CC(O)Cn1c2ccccc2c2ccccc21)c1ccccc1` (stereo not drawn) [Compound 23, N-(3-(9H-Carbazol-9-yl)-2-hydroxypropyl)-N-phenylmethanesulfonamide], the EC50 is reported as 90 nM.
Compound `CS(=O)(=O)N(CC(O)Cn1c2ccccc2c2ccccc21)c1ccc(F)cc1` (stereo not drawn) [Compound 24, N-(3-(9H-Carbazol-9-yl)-2-hydroxypropyl)-N-(4-fluorophenyl)methanesulfonamide] has an EC50 of 210 nM.
For `Cc1ccc(N(CC(O)Cn2c3ccccc3c3ccccc32)S(C)(=O)=O)cc1` (stereo not drawn) [Compound 25, N-(3-(9H-Carbazol-9-yl)-2-hydroxypropyl)-N-p-tolylmethanesulfonamide], the EC50 was 170 nM.
`CS(=O)(=O)N(CC(O)Cn1c2ccccc2c2ccccc21)c1ccccc1I` (stereo not drawn) [Compound 26, N-(3-(9H-Carbazol-9-yl)-2-hydroxypropyl)-N-(2-iodophenyl)methanesulfonamide] was tested, and the EC50 was 1300 nM.
`CS(=O)(=O)N(CC(O)Cn1c2ccccc2c2ccccc21)c1cccc2ccccc12` (stereo not drawn) [Compound 27, N-(3-(9H-Carbazol-9-yl)-2-hydroxypropyl)-N-(naphthalen-1-yl)methanesulfonamide] gave an EC50 of 250 nM.
With `CS(=O)(=O)N(CC(O)Cn1c2ccccc2c2ccccc21)c1ccc(Br)cc1` (stereo not drawn) [Compound 28, N-(3-(9H-Carbazol-9-yl)-2-hydroxypropyl)-N-(4-bromophenyl)methanesulfonamide] the EC50 was 2090 nM.
`CC(=O)Nc1ccc(N(CC(O)Cn2c3ccccc3c3ccccc32)S(C)(=O)=O)cc1` (stereo not drawn) [Compound 29, N-(4-(N-(3-(9H-Carbazol-9-yl)-2-hydroxypropyl)methylsulfonamido)phenyl)acetamide] was tested, and the EC50 was 710 nM.

Same assay, conditions: stable U2OS reporter cells harboring Per2-dLuc; luminescence monitored over 4-5 days at 35° C.
With `CS(=O)(=O)N(CC(O)Cn1c2ccccc2c2ccccc21)C1CC2CCC1O2` (single isomer, unassigned) [Compound 140B, N-(3-(9H-Carbazol-9-yl)-2-hydroxypropyl)-N-(7-oxabicyclo[2.2.1]heptan-2-yl)methanesulfonamide] the EC50 was 823 nM.
With `CC1CCCC1N(CC(O)Cn1c2ccc(F)cc2c2cc(F)ccc21)S(C)(=O)=O` (single isomer, unassigned) [Compound 193B, N-(3-(3,6-Difluoro-9H-carbazol-9-yl)-2-hydroxypropyl)-N-(2-methylcyclopentyl)methanesulfonamide] the EC50 was 654 nM.
Compound `CC1CCCC1N(CC(O)Cn1c2ccc(F)cc2c2cc(F)ccc21)S(C)(=O)=O` (single isomer, unassigned) [Compound 193C, N-(3-(3,6-Difluoro-9H-carbazol-9-yl)-2-hydroxypropyl)-N-(2-methylcyclopentyl)methanesulfonamide] has an EC50 of 4470 nM.
